Reference: patent EP0528699B1, “Saishin N derivatives, process for their preparation and anti-ulcer agents containing them” (TOKYO TANABE COMPANY LIMITED, priority 1991, dated 1993)
Marks after values point to notes of the source that are not given here.

The compounds below were run on Hydrochloric acid-Ethanol-Induced Ulcers (assay: Hydrochloric acid-Ethanol-Induced Ulcers). Details: Rattus norvegicus, intraduodenal, 1 h, Table 2; dose 5 mg/kg intraduodenally one hour before hydrochloric acid - 60% ethanol; read-out: Inhibition ratio(%).
Assay type: in vivo, male Wister rats
Description: Experiments on Hydrochloric acid-Ethanol-Induced Ulcers, Aspirin-Induced Ulcers, Water-Immersion stress-Induced Ulcers, Shay's Ulcers and Serotonin-Induced Ulcers were carried out using male Wister rats weighing about 200g in groups of six. Experiments on Ischemia-Reperfusion -Induced Gastric Lesions were carried out using male SD rats weighing about 250g in groups of six. Other than for the tests on Ischemia-Reperfusion-Induced Gastric Lesions Models, the test compounds were prepared by mixing thoroughly with polyethyleneglycol and 0.5% sodium carboxymethyl cellulose solution and emulsifying vigorously. Activities against respective ulcer models were evaluated by an inhibiting ratio obtained by dividing the difference between the ulceration indexes of the non-administered group and the test compound group by the non-administered group.
To each rat which had been fasted for 24 hours was orally administered 0.5ml of a mixed solution of 150 mM hydrochloric acid - 60% ethanol per 100g of weight. Each rat was slaughtered after one hour, a length of ulcer formed at the fundus gland area of stomach was measured and ulceration index was calculated based on the length. The test compound was administered intraduodenally one hour or three hours before the administration of mixed solution of hydrochloric acid - 60% ethanol.
Work on `COC1C=C(C)C2(OC)CC(C)(C)C1O2` (stereo not drawn) [AU155, 1,4-dimethoxy-2,6,6-trimethyl-8-oxabicyclo [3. 2. 1] oct-2-ene] yielded an inhibition in vivo at 5 mg/kg of 93%. `COC12CC(C)(C)C(O1)C(OCc1ccccc1)C=C2C` (stereo not drawn) [AU157, 1-methoxy-4-benzyloxy-2,6,6-trimethyl-8-oxabicyclo [3.2.1] oct-2-ene] was tested, and the inhibition in vivo at 5 mg/kg was 64%. `COC12CC(C)(C)C(O1)C(OC(C)=O)C=C2C` (stereo not drawn) [AU158, 4-acetoxy-1-methoxy-2,6,6-trimethyl-8-oxabicyclo [3.2.1] oct-2-ene] gave an inhibition in vivo at 5 mg/kg of 33%. `COC12CC(C)(C)C(OC(C)=O)C(C=C1C)O2` (stereo not drawn) [AU159, 4-acetoxy-1-methoxy-3,3,7-trimethyl-8-oxabicyclo [3.2.1] oct-6-ene] showed an inhibition in vivo at 5 mg/kg of 94%.

Same assay, conditions: Rattus norvegicus, intraduodenal, 1 h, Table 2; dose 10 mg/kg intraduodenally one hour before hydrochloric acid - 60% ethanol; read-out: Inhibition ratio(%)
Work on `CC(=O)OC1C=C(C)C(=O)CC(C)(C)C1OC(C)=O` (stereo not drawn) [AU102, 4,5-diacetoxy-2,6,6-trimethyl-2-cyclohepten-1-one] yielded an inhibition in vivo at 10 mg/kg of 75%. For `COC12CC(C)(C)C(O1)C(OC(C)=O)CC2C` (stereo not drawn) [AU108A, 2,4-trans-1-methoxy-4-acetoxy-2,6,6-trimethyl-8-oxabicyclo [3.2.1] octane], the inhibition in vivo at 10 mg/kg was 75%. `COC12CC(C)(C)C(O)C(C=C1C)O2` (stereo not drawn) [AU153, 1-methoxy-3,3,7-trimethyl-8-oxabicyclo [3.2.1] oct-6-en-4-ol] was tested, and the inhibition in vivo at 10 mg/kg was 55%. `COC1C=C(C)C2(OC)CC(C)(C)C1O2` (stereo not drawn) [AU155, 1,4-dimethoxy-2,6,6-trimethyl-8-oxabicyclo [3. 2. 1] oct-2-ene] gave an inhibition in vivo at 10 mg/kg of 96%. Compound `CC1=CC(OCc2ccccc2)C(O)C(C)(C)CC1=O` (stereo not drawn) [AU156, 4-benzyloxy-5-hydroxy-2,6,6-trimethyl-2-cyclohepten-1-one] has an inhibition in vivo at 10 mg/kg of 97%. `COC12CC(C)(C)C(OC(C)=O)C(C=C1C)O2` (stereo not drawn) [AU159, 4-acetoxy-1-methoxy-3,3,7-trimethyl-8-oxabicyclo [3.2.1] oct-6-ene] showed an inhibition in vivo at 10 mg/kg of 83%.

Same assay, conditions: Rattus norvegicus, intraduodenal, 1 h, Table 2; dose 20 mg/kg intraduodenally one hour before hydrochloric acid - 60% ethanol; read-out: Inhibition ratio(%)
`COC12CC(C)(C)C(O1)C(O)C=C2C` (stereo not drawn) [AU152, 1-methoxy-2,6,6-trimethyl-8-oxabicyclo [3.2.1] oct-2-en-4-ol] showed an inhibition in vivo at 20 mg/kg of 87%.

Same assay, conditions: Rattus norvegicus, intraduodenal, 3 h, Table 1; dose 20 mg/kg intraduodenally three hours before hydrochloric acid - 60% ethanol; read-out: Inhibition ratio(%)
Work on `CO[C@H]1C[C@H](C)C(=O)CC(C)(C)C1OC(=O)c1ccccc1` (relative stereo) [AU123A, 2,4-trans-5-benzoyloxy-4-methoxy-2,6,6-trimethylcycloheptan-1-one] yielded an inhibition in vivo at 20 mg/kg of 34%. `CC(=O)OC1C=C(C)C(=O)CC(C)(C)C1OC(C)=O` (stereo not drawn) [AU102, 4,5-diacetoxy-2,6,6-trimethyl-2-cyclohepten-1-one] was tested, and the inhibition in vivo at 20 mg/kg was 49%. Compound `COC12CC(C)(C)C(O1)C(OC(C)=O)CC2C` (stereo not drawn) [AU108A, 2,4-trans-1-methoxy-4-acetoxy-2,6,6-trimethyl-8-oxabicyclo [3.2.1] octane] has an inhibition in vivo at 20 mg/kg of 55%. With `COC1CC(C)(C)C(OC(C)=O)C(OC(C)=O)C=C1C` (stereo not drawn) [AU112, 4,5-diacetoxy-1-methoxy-2,6,6-trimethyl-2-cycloheptene] the inhibition in vivo at 20 mg/kg was 45%. For `COC1CC(C)(C)C(OC)C(OC)C=C1C` (stereo not drawn) [AU113, 1,4,5-trimethoxy-2,6,6-trimethyl-2-cycloheptene], the inhibition in vivo at 20 mg/kg was 39%. `COC1CC(C)(C)C(OC(=O)c2ccccc2)C(O)C=C1C` (stereo not drawn) [AU115, 5-benzoyloxy-1-methoxy-2,6,6-trimethyl-2-cyclohepten-4-ol] gave an inhibition in vivo at 20 mg/kg of 83%. With `COC1C=C(C)C(=O)CC(C)(C)C1OC(=O)c1ccccc1` (stereo not drawn) [AU121, 5-benzoyloxy-4-methoxy-2,6,6-trimethyl-2-cyclohepten-1-one] the inhibition in vivo at 20 mg/kg was 50%. In the case of `COC1CC(C)C(=O)CC(C)(C)C1OC(=O)c1ccccc1` (stereo not drawn) [AU123B, 2,4-cis-5-benzoyloxy-4-methoxy-2,6,6-trimethyl cycloheptan-1-one], the inhibition in vivo at 20 mg/kg was 25%. `CC1=CC(O)C(OC(=O)c2ccccc2Cl)C(C)(C)CC1=O` (stereo not drawn) [AU127, 5-(2-chlorobenzoyloxy)-4-hydroxy-2,6,6-trimethyl-2-cyclohepten-1-one] showed an inhibition in vivo at 20 mg/kg of 87%. `CC1=CC(O)C(OC(=O)c2ccc(Cl)cc2)C(C)(C)CC1=O` (stereo not drawn) [AU128, 5-(4-chlorobenzoyloxy)-4-hydroxy-2,6,6-trimethyl-2-cyclohepten-1-one] showed an inhibition in vivo at 20 mg/kg of 53%. `COc1ccc(C(=O)OC2C=C(C)C(=O)CC(C)(C)C2O)cc1OC` (stereo not drawn) [AU133, 4-(3,4-dimethoxybenzoyloxy)-5-hydroxy-2,6,6-trimethyl-2-cyclohepten-1-one] gave an inhibition in vivo at 20 mg/kg of 38%. `CC(C)=CCOC1CC(C)(C)C(O)C(OC(=O)c2ccccc2)C=C1C` (stereo not drawn) [AU144, 4-benzoyloxy-1-(3-methyl-2-buten-1-yloxy)-2,6,6-trimethyl-2-cyclohepten-5-ol] showed an inhibition in vivo at 20 mg/kg of 51%. Work on `COC12CC(C)(C)C(O1)C(=O)CC2C` (stereo not drawn) [AU163, 1-methoxy-2,6,6-trimethyl-8-oxabicyclo [3.2.1] octan-4-one] yielded an inhibition in vivo at 20 mg/kg of 32%. `CC1=CC(=O)C2OC1(OC(=O)c1ccccc1)CC2(C)C` (stereo not drawn) [AU168, 1-benzoyloxy-2,6,6-trimethyl-8-oxabicyclo [3.2.1] oct-2-en-4-one] showed an inhibition in vivo at 20 mg/kg of 46%. In the case of `CC1=CC(O)C(OC(=O)c2ccccc2)C(C)(C)CC1=O` (stereo not drawn) [AU183, 5-benzoyloxy-4-hydroxy-2,6,6-trimethyl-2-cyclohepten-1-one], the inhibition in vivo at 20 mg/kg was 73%. With `COc1ccc(COC2CC(C)C(=O)CC(C)(C)C2OC(C)=O)cc1` (stereo not drawn) [AU185, 2,4-cis-5-acetoxy-4-(4-methoxybenzyloxy)-2,6,6-trimethylcycloheptan-1-one] the inhibition in vivo at 20 mg/kg was 34%. In the case of `COc1ccc(COC2CC(C)C(=O)CC(C)(C)C2OC(=O)c2ccccc2)cc1` (stereo not drawn) [AU187, 2,4-cis-5-benzoyloxy-4-(4-methoxybenzyloxy)-2,6,6-trimethylcycloheptan-1-one], the inhibition in vivo at 20 mg/kg was 35%. For `CC(=O)OC1C=C(C)C(=O)CC(C)(C)C1OC(=O)c1ccccc1` (stereo not drawn) [AU189, 4-acetoxy-5-benzoyloxy-2,6,6-trimethyl-2-cyclohepten-1-one], the inhibition in vivo at 20 mg/kg was 63%. `CC1CC(O)C(OC(=O)c2ccccc2)C(C)(C)CC1=O` (stereo not drawn) [AU191, 2,4-cis-5-benzoyloxy-4-hydroxy-2,6,6-trimethyl cycloheptan-1-one] showed an inhibition in vivo at 20 mg/kg of 53%. `CC(=O)OC1CC(C)C(=O)CC(C)(C)C1OC(=O)c1ccccc1` (stereo not drawn) [AU192, 2,4-cis-4-acetoxy-5-benzoyloxy-2,6,6-trimethylcycloheptan-1-one] gave an inhibition in vivo at 20 mg/kg of 49%. With `CC(=O)OC1C(OC(=O)c2ccccc2)C=C(C)C(=O)CC1(C)C` (stereo not drawn) [AU193, 5-acetoxy-4-benzoyloxy-2,6,6-trimethyl-2-cyclohepten-1-one] the inhibition in vivo at 20 mg/kg was 60%. In the case of `CC(=O)OC1C(OC(=O)c2ccccc2)CC(C)C(=O)CC1(C)C` (stereo not drawn) [AU194, 2,4-cis-5-acetoxy-4-benzoyloxy-2,6,6-trimethylcycloheptan-1-one], the inhibition in vivo at 20 mg/kg was 23%. Compound `COc1ccc(C(=O)OC2C=C(C)C(=O)CC(C)(C)C2O)cc1` (stereo not drawn) [AU195, 5-hydroxy-4-(4-methoxybenzoyloxy)-2,6,6-trimethyl-2-cyclohepten-1-one] has an inhibition in vivo at 20 mg/kg of 40%. `CC(=O)OC1C(OC(=O)c2ccc(N)cc2)C=C(C)C(=O)CC1(C)C` (stereo not drawn) [AU197, 5-acetoxy-4-(4-aminobenzoyloxy)-2,6,6-trimethyl-2-cyclohepten-1-one] showed an inhibition in vivo at 20 mg/kg of 44%. Compound `CC(=O)OC1C(OC(=O)c2cccc(Cl)c2)CC(C)C(=O)CC1(C)C` (stereo not drawn) [AU199, 2,4-cis-5-acetoxy-4-(3-chlorobenzoyloxy)-2,6,6-trimethylcycloheptan-1-one] has an inhibition in vivo at 20 mg/kg of 29%. `CC1=CC(OC(=O)c2cccc([N+](=O)[O-])c2)C(O)C(C)(C)CC1=O` (stereo not drawn) [AU200, 5-hydroxy-4-(3-nitrobenzoyloxy)-2,6,6-trimethyl-2-cyclohepten-1-one] showed an inhibition in vivo at 20 mg/kg of 50%. For `CC1=CC(OC(=O)C=Cc2ccccc2)C(O)C(C)(C)CC1=O` (stereo not drawn) [AU206, 4-cinnamoyloxy-5-hydroxy-2,6,6-trimethyl-2-cyclohepten-1-one], the inhibition in vivo at 20 mg/kg was 72%.

Same assay, conditions: Table 1; dose 20 mg/kg intraduodenally three hours before hydrochloric acid - 60% ethanol; 20 mg/kg
`COC12CC(C)(C)C(O1)C(O)CC2C` (stereo not drawn) [AU105A, 2,4-trans-1-methoxy-2,6,6-trimethyl-8-oxabicyclo [3.2.1] octan-4-ol] was tested, and the “Inhibition ratio(%)” value was 44* %.
